Assay results from the supplement of paper PMC11003180.

Assays:
Assay in all cases: drug sensitivity score (DSS) from 5-dose viability curve (DSS (area-based score, 0 = no response)); higher = more sensitive (stronger viability inhibition); extreme values may be limits of the assay
[1] = test system: MDCK wild-type - doxycycline; details: doxycycline: none; 72 h
How it was run: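 An oncology library of 528 drugs was pre-spotted at five doses (1-10,000 nM) in 384-well plates, and parental MDCK cells without doxycycline were added at 2000 cells/well. The plates were kept at 37 °C for 72 h. Drug sensitivity scores were obtained by fitting dose-response curves in the Breeze pipeline to CellTiter-Glo viability readings scaled per plate between vehicle and positive controls.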

[2] = test system: MDCK p60AmotL2-inducible + doxycycline (p60AmotL2 expressing); details: doxycycline: 10 ng/mL; 72 h
How it was run: (§1)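 Parental MDCK cells and MDCK cells with doxycycline-inducible p60AmotL2, both given doxycycline at 10 ng/mL in the medium before plating, were dispensed at 2000 cells/well onto pre-spotted 384-well plates. The plates held an oncology library of 528 drugs at five doses (1-10,000 nM) and were incubated 72 h at 37 °C. Viability was read as CellTiter-Glo luminescence and scaled per plate between vehicle and positive controls. Drug sensitivity scores came from dose-response curve fits in the Breeze pipeline.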

[3] = test system: MDCK wild-type + doxycycline; details: doxycycline: 10 ng/mL; 72 h
How it was run: as §1

Row | Structure (SMILES) | drug sensitivity score [1] | drug sensitivity score [2] | drug sensitivity score [3]
1 | Cc1nc(C(=O)NCC(=O)O)c(O)c2ccc(Oc3ccccc3)cc12 [Roxadustat] | 0 | 0 | 0
2 | C[C@@H](C(=O)O)c1ccc(-c2ccccc2)c(F)c1 [Tarenflurbil] | 0 | 0 | 0
3 | CN1CC[C@H](c2c(O)cc(O)c3c(=O)cc(-c4ccccc4Cl)oc23)[C@H](O)C1 [Alvocidib] | 21.5 | 18.3 | 20.9
4 | CC(C)c1cc(C(=O)N2Cc3ccc(CN4CCN(C)CC4)cc3C2)c(O)cc1O [Onalespib] | 16.2 | 18.8 | 18.2
5 | Nc1nc(OCc2cc(Br)cs2)c2[nH]cnc2n1 [Lomeguatrib] | 0 | 0 | 0
6 | CC(C)C[C@H](NC(=O)[C@H](Cc1ccccc1)NC(=O)c1cnccn1)B(O)O [Bortezomib] | 26.7 | 25 | 25.9
7 | Nc1ncn([C@@H]2O[C@H](CO)[C@@H](O)[C@H]2O)c(=O)n1 [Azacitidine] | 0.3 | 0.7 | 0.6
8 | Cc1noc2c1-c1ccccc1C(c1ccc(Cl)cc1)=N[C@H]2CC(N)=O [CPI-0610] | 3.1 | 10.9 | 4.8
9 | O=C(O)CNC(=O)c1c(O)c2ccccc2n(Cc2ccccc2)c1=O [IOX-2] | 0 | 0 | 0
10 | CCS(=O)(=O)N1CC(CC#N)(n2cc(-c3ncnc4[nH]ccc34)cn2)C1 [Baricitinib] | 0 | 0 | 0
11 | Cc1ccc(-n2nc(C(C)(C)C)cc2NC(=O)Nc2ccc(OCCN3CCOCC3)c3ccccc23)cc1 [Doramapimod] | 0 | 0 | 0
12 | Cc1cc(F)c(C(=O)Nc2cccc(-c3nncn3C(C)C)n2)cc1-n1cnc(C2CC2)c1 [Selonsertib] | 0 | 0 | 0
13 | CN1CCN(c2nc(C3=C(c4c[nH]c5ccccc45)C(=O)NC3=O)c3ccccc3n2)CC1 [Sotrastaurin] | 0 | 0.3 | 0
14 | COc1cc(CCc2cc(NC(=O)c3ccc(N4CC(C)NC(C)C4)cc3)n[nH]2)cc(OC)c1 (stereo not drawn) [AZD4547] | 0 | 0 | 0
15 | O=C(O)c1ccc(O)c2ncccc12 [IOX-1] | 1.4 | 1.7 | 1.6
16 | O=C(c1cccc(Cl)c1F)N1CCN(Cc2cccc(Nc3nccs3)n2)CC1 [MK-8745] | 6.6 | 12.4 | 9.5
17 | CN(C)C(=O)c1cc2cnc(Nc3ccc(N4CCNCC4)cn3)nc2n1C1CCCC1 [Ribociclib] | 0 | 1.6 | 0.8
18 | COc1cccc2c1C(=O)c1c(O)c3c(c(O)c1C2=O)C[C@@](O)(C(=O)CO)C[C@@H]3O[C@H]1C[C@H](N)[C@@H](O)[C@H](C)O1 [Epirubicin] | 5.9 | 11.6 | 10
19 | Oc1ncnc2[nH]ncc12 [Allopurinol] | 0 | 0 | 0
20 | O=C(Nc1ccc(OC(F)(F)Cl)cc1)c1cnc(N2CC[C@@H](O)C2)c(-c2cc[nH]n2)c1 [Asciminib] | 0 | 0 | 0
21 | CS(=O)(=O)CCNCc1ccc(-c2ccc3ncnc(Nc4ccc(OCc5cccc(F)c5)c(Cl)c4)c3c2)o1 [Lapatinib] | 0.9 | 6.8 | 0
